Assay results as given in ChEMBL document CHEMBL5321204, “Hybrids of delavirdine and piperdin-4-yl-aminopyrimidines (DPAPYs) as potent HIV-1 NNRTIs: Design, synthesis and biological activities” (Eur J Med Chem, 2023).

Assays:
[1] = tested on: Human immunodeficiency virus 1; experiment: Antiviral activity against HIV-1 K103 N mutant infected in human MT4 cells assessed as protection against virus induced cytopathic effect and measured after 5 days by MTT spectrophotometric assay; assay type: functional, organism-based; details: Human immunodeficiency virus 1, MT4, 120 h
[2] = tested on: Human immunodeficiency virus 1; experiment: microbe, parasite or virus in culture; details: Human immunodeficiency virus 1, IIIb, MT4, 120 h
Description: Antiviral activity against HIV-1 IIIb infected in human MT4 cells assessed as protection against virus induced cytopathic effect and measured after 5 days by MTT spectrophotometric assay

[3] = tested on: Human immunodeficiency virus 1; experiment: Antiviral activity against HIV-1 Y181C mutant infected in human MT4 cells assessed as protection against virus induced cytopathic effect and measured after 5 days by MTT spectrophotometric assay; assay type: functional, organism-based; details: Human immunodeficiency virus 1, MT4, 120 h
[4] = Cytotoxicity against human MT4 cells assessed as reduction in cell viability incubated for 5 days by MTT spectrophotometric assay; assay type: toxicity, cell-based; details: time 5 day
[5] = tested on: Human immunodeficiency virus 1; experiment: Antiviral activity against HIV-1 RES056 mutant infected in human MT4 cells assessed as protection against virus induced cytopathic effect and measured after 5 days by MTT spectrophotometric assay; assay type: functional, organism-based; details: Human immunodeficiency virus 1, MT4, 120 h
[6] = tested on: Human immunodeficiency virus 1; experiment: Antiviral activity against HIV-1 L100I mutant infected in human MT4 cells assessed as protection against virus induced cytopathic effect and measured after 5 days by MTT spectrophotometric assay; assay type: functional, organism-based; details: Human immunodeficiency virus 1, MT4, 120 h
[7] = target: Human immunodeficiency virus type 1 reverse transcriptase (Human immunodeficiency virus 1, UniProt Q72547); experiment: Inhibition of HIV-1 reverse transcriptase using [2,8-3H]dGTP as substrate by […] assay
[8] = tested on: Human immunodeficiency virus 1; experiment: Antiviral activity against HIV-1 Y188L mutant infected in human MT4 cells assessed as protection against virus induced cytopathic effect and measured after 5 days by MTT spectrophotometric assay; assay type: functional, organism-based; details: Human immunodeficiency virus 1, MT4, 120 h
[9] = tested on: Human immunodeficiency virus 1; experiment: Antiviral activity against HIV-1 F227L-V106A mutant infected in human MT4 cells assessed as protection against virus induced cytopathic effect and measured after 5 days by MTT spectrophotometric assay; assay type: functional, organism-based; details: Human immunodeficiency virus 1, MT4, 120 h
[10] = tested on: Human immunodeficiency virus 1; experiment: Antiviral activity against HIV-1 E138K mutant infected in human MT4 cells assessed as protection against virus induced cytopathic effect and measured after 5 days by MTT spectrophotometric assay; assay type: functional, organism-based; details: Human immunodeficiency virus 1, MT4, 120 h
[11] = in vitro; details: human, MT4 cells
Description: Selectivity index, ratio of CC50 for cytotoxicity against human MT4 cells assessed as reduction in cell viability to EC50 for antiviral activity against HIV-1 IIIb infected in human MT4 cells assessed as reduction in virus induced cytopathic effect

[12] = tested on: Human immunodeficiency virus 2; experiment: Antiviral activity against HIV-2 ROD infected in human MT4 cells assessed as protection against virus induced cytopathic effect and measured after 5 days by MTT spectrophotometric assay; assay type: functional, organism-based; details: Human immunodeficiency virus 2, ROD, MT4, 120 h

SMILES | EC50 [1] [µM] | EC50 [2] [µM] | EC50 [3] [µM] | CC50 at 120 h [4] [µM] | EC50 [5] [µM] | EC50 [6] [µM] | IC50 [7] [µM] | EC50 [8] [µM] | EC50 [9] [µM] | EC50 [10] [µM] | selectivity ratio [11] | EC50 [12] [µM]
CS(=O)(=O)Nc1ccc2[nH]c(C(=O)N3CCC(Nc4nccc(Oc5cccc(Br)c5)n4)CC3)cc2c1 | 7.6 | 0.67 | 8.1 | 14 | > 14 | 7.2 | 3.4 | > 14 | 8.1 | 3.5 | 21 | > 14
Cc1cc(C#N)cc(C)c1Oc1ccnc(NC2CCN(C(=O)c3cc4cc(NS(C)(=O)=O)ccc4[nH]3)CC2)n1 | 0.54 | 0.036 | 0.73 | 25 | > 25 | 1.8 | 0.13 | 3.8 | 3.6 | 0.21 | 686 | > 25
Cc1cc(Oc2ccnc(NC3CCN(C(=O)c4cc5cc(NS(C)(=O)=O)ccc5[nH]4)CC3)n2)cc(C)c1Cl | > 5.3 | 1.3 | > 5.3 | 5.3 | > 5.3 | > 5.3 | 3 | > 5.3 | > 5.3 | > 5.3 | 4 | > 5.3
CS(=O)(=O)Nc1ccc2[nH]c(C(=O)N3CCC(Nc4nccc(Oc5ccc(Br)cc5)n4)CC3)cc2c1 | 8.2 | 0.87 | > 9.1 | 9.1 | > 9.1 | 7.1 | 2.2 | > 9.1 | > 9.1 | 6.7 | 10 | > 9.1
CS(=O)(=O)Nc1ccc2[nH]c(C(=O)N3CCC(Nc4nccc(Oc5ccc(C#N)cc5)n4)CC3)cc2c1 | > 192 | 3.1 | > 192 | 192 | > 192 | > 192 | 1.1 | > 192 | > 192 | 7.3 | 62 | > 192
Cc1ccnc2c1NC(=O)c1cccnc1N2C1CC1 [NEVIRAPINE] | 7.4 | 0.19 | – | > 15 | > 15 | 2.2 | – | > 15 | > 15 | 0.31 | – | –
CS(=O)(=O)Nc1ccc2[nH]c(C(=O)N3CCC(Nc4nccc(Oc5ccc(C(F)(F)F)cc5)n4)CC3)cc2c1 | > 18 | 1.8 | > 18 | 18 | > 18 | > 18 | 1.3 | > 18 | > 18 | 5.7 | 10 | > 18
Nc1ccn([C@@H]2CS[C@H](CO)O2)c(=O)n1 [LAMIVUDINE] | 4.7 | 8.3 | 3.5 | > 87 | 10 | 1.7 | – | 4.1 | 8.2 | 7.4 | > 11 | –
Cc1ccccc1Oc1ccnc(NC2CCN(C(=O)c3cc4cc(NS(C)(=O)=O)ccc4[nH]3)CC2)n1 | 8.7 | 0.33 | 9 | 13 | > 13 | > 13 | 8.6 | > 13 | > 13 | 1 | 41 | > 13
CS(=O)(=O)Nc1ccc2[nH]c(C(=O)N3CCC(Nc4nccc(Oc5ccc(Br)cc5F)n4)CC3)cc2c1 | 23 | 0.94 | 29 | 80 | > 80 | 32 | 0.11 | > 80 | > 80 | 3 | 84 | > 80
O=C1Nc2ccc(Cl)cc2[C@@](C#CC2CC2)(C(F)(F)F)O1 [EFAVIRENZ] | 0.14 | – | – | > 6.3 | 0.57 | 0.067 | – | 0.32 | 0.41 | 0.007 | – | –
CS(=O)(=O)Nc1ccc2[nH]c(C(=O)N3CCC(Nc4nccc(Oc5cccc(F)c5)n4)CC3)cc2c1 | > 15 | 5.7 | > 15 | 15 | > 15 | > 15 | 4.2 | > 15 | > 15 | 7.3 | 3 | > 15
CS(=O)(=O)Nc1ccc2[nH]c(C(=O)N3CCC(Nc4nccc(Oc5ccccc5Cl)n4)CC3)cc2c1 | 6.4 | 0.43 | 5.9 | 15 | > 15 | 7.6 | 1.6 | 7.8 | 8.3 | 0.98 | 35 | > 15
Cc1cccc(Oc2ccnc(NC3CCN(C(=O)c4cc5cc(NS(C)(=O)=O)ccc5[nH]4)CC3)n2)c1 | > 27 | 5.5 | > 27 | 27 | > 27 | > 27 | 1.2 | > 27 | > 27 | > 27 | 5 | > 27
Cc1cccc(C)c1Oc1ccnc(NC2CCN(C(=O)c3cc4cc(NS(C)(=O)=O)ccc4[nH]3)CC2)n1 | 0.52 | 0.032 | 0.84 | 21 | > 21 | 3.3 | 12 | 0.67 | 2.7 | 0.08 | 678 | > 21
CS(=O)(=O)Nc1ccc2[nH]c(C(=O)N3CCC(Nc4nccc(Oc5cccc(Cl)c5)n4)CC3)cc2c1 | 8.2 | 0.7 | 9 | 14 | > 14 | 8.1 | 0.34 | 9.2 | 8.8 | 5.5 | 20 | > 14
Cc1cc(C#N)cc(C)c1Oc1nc(Nc2ccc(C#N)cc2)nc(N)c1Br [ETRAVIRINE] | 0.004 | – | – | > 4.6 | 0.1 | 0.012 | – | 0.03 | 0.03 | 0.017 | > 1430 | –
CS(=O)(=O)Nc1ccc2[nH]c(C(=O)N3CCC(Nc4nccc(Oc5cccc(C#N)c5)n4)CC3)cc2c1 | > 29 | 3.7 | > 29 | 29 | > 29 | > 29 | 0.6 | > 29 | > 28 | 8.7 | 8 | > 29
CS(=O)(=O)Nc1ccc2[nH]c(C(=O)N3CCC(Nc4nccc(Oc5cccc(C(F)(F)F)c5)n4)CC3)cc2c1 | > 16 | 1 | > 16 | 16 | > 16 | > 16 | 1.8 | > 16 | > 16 | 4.2 | 16 | > 16
CS(=O)(=O)Nc1ccc2[nH]c(C(=O)N3CCC(Nc4nccc(Oc5ccc(Cl)cc5)n4)CC3)cc2c1 | 8.4 | 0.74 | > 15 | 15 | > 15 | 8.2 | 1.1 | > 15 | > 15 | 4.5 | 20 | > 15
Cc1cn([C@H]2C[C@H](N=[N+]=[N-])[C@@H](CO)O2)c(=O)[nH]c1=O [ZIDOVUDINE] | 0.032 | 0.024 | 0.019 | > 7.1 | 0.035 | 0.009 | – | 0.023 | 0.026 | – | > 290 | 0.021
Cc1cc(C)c(Oc2ccnc(NC3CCN(C(=O)c4cc5cc(NS(C)(=O)=O)ccc5[nH]4)CC3)n2)c(C)c1 | 0.12 | 0.009 | 0.36 | 19 | > 19 | 1.1 | 0.11 | 0.75 | 3.06 | 0.033 | 2150 | > 19
CS(=O)(=O)Nc1ccc2[nH]c(C(=O)N3CCC(Nc4nccc(Oc5ccccc5Br)n4)CC3)cc2c1 | 3.8 | 0.27 | 3.7 | 17 | > 17 | 6.8 | 1.4 | 7.1 | 6.5 | 0.79 | 60 | > 17
